± gives the expanded uncertainty stated by the source.

The conditions of data set [1]: 303.15 K, 101.33 kPa, Liquid; for viscosity: Capillary tube (Ostwald / Ubbelohde) method; for speed of sound: Linear variable-path acoustic interferometer; for mass density: Pycnometric method.
Data set [2] can be described thus: xn = mol fraction of the nth substance listed. The note with it: 303.15 K, 101 kPa, Liquid, x1 = 0.5; for viscosity: Capillary tube (Ostwald / Ubbelohde) method; for speed of sound: Frequency=2 MHz; for mass density: Pycnometric method.

The viscosity is the resistance of a fluid to flow. As a reminder, the speed of sound is how fast a sound wave travels through the sample. A word on the mass density: it is the mass of a sample divided by its volume. As to `CCCCO` [butan-1-ol], in data set [1], the viscosity is given as 2.054 ± 0.21 mPa·s, the speed of sound stood at 1228.4 ± 1.9 m/s and the mass density came to 804 ± 4 kg/m3.
Regarding `CCOC(=O)c1ccccc1` [ethyl benzoate], in data set [1], the viscosity came to 1.749 ± 0.17 mPa·s, the speed of sound amounted to 1345.4 ± 2 m/s and the mass density turned out to be 1042 ± 4 kg/m3.
`CCOC(=O)c1ccccc1` [ethyl benzoate] + CCCO: in data set [2], the viscosity is recorded as 1.679 ± 0.17 mPa·s and the mass density amounted to 918.5 ± 4 kg/m3. Moreover, in data set [2] (variable-path interferometer), the speed of sound was determined as 1261.4 ± 1.9 m/s.
Take `COC(=O)c1ccccc1` [methyl benzoate]: in data set [1], the viscosity is 1.67 ± 0.17 mPa·s, the speed of sound was determined as 1399.4 ± 2 m/s and the mass density is 1077 ± 4 kg/m3.
As for `COC(=O)c1ccccc1` [methyl benzoate] + CCCO, in data set [2], the viscosity came out at 1.634 ± 0.16 mPa·s and the mass density stood at 944.5 ± 4 kg/m3. The speed of sound in data set [2] (Linear variable-path acoustic interferometer) was determined as 1296.6 ± 1.9 m/s.
Regarding `CCCCCO` [pentan-1-ol], in data set [1], the viscosity came to 3.012 ± 0.3 mPa·s, the speed of sound is given as 1252.4 ± 1.9 m/s and the mass density was determined as 810 ± 4 kg/m3.
Turning to `CCCO` [propan-1-ol], in data set [1], the viscosity is given as 1.61 ± 0.16 mPa·s, the speed of sound stood at 1189.2 ± 1.9 m/s and the mass density came to 798 ± 4 kg/m3.

For the origin of these results see the NIST ThermoML archive (doi:10.1016/j.jct.2013.09.005).
